Test results as given in patent US20240300980A1, “HETEROCYCLIC COMPOUNDS AS KRAS INHIBITOR, AND PREPARATION THEREFOR AND USE THEREOF IN TREATMENT” (SHANGHAI KECHOW PHARMA, INC., priority 2021, published 2024).

What follows are molecules tested on AGS cells (KRAS^G12D) (assay: Detection of cell proliferation in vitro by MTT/MTS method (cell activity experiment)). Settings: AGS cells; MTT/MTS; 3 days of drug treatment; read-out: AGS IC50.
Format: cell-based
In short: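 After 3-day compound exposure (final DMSO 0.5%), viability of AGS (KRAS G12D) cells, plated 1000/well one day before dosing, was measured at 490 nm following 4 h MTT or MTS incubation. IC50 was fitted from dose–effect curves relative to DMSO-treated wells.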
Work on `C#Cc1c(F)ccc2cc(O)cc(-c3ccc4c(N5C[C@H]6CC[C@@H](C5)N6)nc(OC[C@]56CCCN5[C@@H](COC(=O)N(C)C)CC6)nc4c3)c12` [Example 153, ((3R,7aR)-7a-(((4-((1R, 5S)-3,8-diazabicyclo [3.2.1]octan-3-yl)-7-(8-ethynyl-7-fluoro-3-hydroxynaphthalen-1-yl)quinazolin-2-yl)oxy)methyl)hexahydro-1H-pyrrolizin-3-yl) methyl dimethylcarbamate] yielded an IC50 of 190 nM.

Same assay, conditions: Homo sapiens, AGS, 72 h, AGS cells; MTT/MTS; 3 days of drug treatment; read-out: AGS IC50
Molecule `CC(C)C1CCc2cc(O)cc(-c3ncc4c(N5C[C@H]6CC[C@@H](C5)N6)nc(OC[C@@]56CCCN5C[C@H](F)C6)nc4c3F)c21` (stereo partly drawn) [Example 268, 7-(4-((1R,5S)-3,8-diazabicyclo[3.2.1]octan-3-yl)-8-fluoro-2-(((2R,7aS)-2-fluorotetrahydro-1H-pyrrolizin-7a(5H)-yl)methoxy)pyrido[4,3-d]pyrimidin-7-yl)-1-isopropyl-2,3-dihydro-1H-inden-5-ol] has an IC50 of 4000 nM. In the case of `CCc1c(F)ccc2cc(O)cc(-c3ncc4c(N5C[C@H]6CC[C@@H](C5)N6)c(C(F)(F)F)c(OC[C@@]56CCCN5C[C@H](F)C6)nc4c3F)c12` [Example 197, 4-(4-((1R,5S)-3,8-diazabicyclo[3.2.1]octan-3-yl)-8-fluoro-2-(((2R,7aS)-2-fluorotetrahydro-1H-pyrrolizin-7a(5H)-yl)methoxy)-3-(trifluoromethyl)-1,6-naphthyridin-7-yl)-5-ethyl-6-fluoronaphthalen-2-ol], the IC50 is reported as greater than 2500 nM. For `CCc1cccc2cc(O)cc(-c3ccc4c(N5C[C@H]6CC[C@@H](C5)N6)c(C#N)c(OC[C@@]56CCCN5C[C@H](F)C6)nc4c3F)c12` [Example 181, 4-((1R,5S)-3,8-diazabicyclo[3.2.1]octan-3-yl)-7-(8-ethyl-3-hydroxynaphthalen-1-yl)-8-fluoro-2-(((2R,7aS)-2-fluorotetrahydro-1H-pyrrolizin-7a(5H)-yl)methoxy)quinoline-3-carbonitrile], the IC50 was 536 nM. With `Oc1cc2c(c(-c3ncc4c(N5C[C@H]6CC[C@@H](C5)N6)nc(OC[C@@]56CCCN5C[C@H](F)C6)nc4c3F)c1)C(C1CC1)CC2` (stereo partly drawn) [Example 267, 7-(4-((1R,5S)-3,8-diazabicyclo[3.2.1]octan-3-yl)-8-fluoro-2-(((2R,7aS)-2-fluorotetrahydro-1H-pyrrolizin-7a(5H)-yl)methoxy)pyrido[4,3-d]pyrimidin-7-yl)-1-cyclopropyl-2,3-dihydro-1H-inden-5-ol] the IC50 was 1050 nM. `C#Cc1c(F)ccc2cc(O)cc(-c3ncc4c(N5CCC(N)C5)nc(OC[C@@]56CCCN5C[C@H](F)C6)nc4c3F)c12` (stereo partly drawn) [Example 51, 4-(4-(3-aminopyrrolidin-1-yl)-8-fluoro-2-(((2R, 7aS)-2-fluorotetrahydro-1H-pyrrolizin-7a(5H)-yl)methoxy)pyrido[4,3-d]pyrimidin-7-yl)-5-ethynyl-6-fluoronaphthalen-2-ol] gave an IC50 of 1660 nM. `CSc1c(F)ccc2cc(O)cc(-c3ncc4c(N5C[C@H]6CC[C@@H](C5)N6)nc(OC[C@@]56CCCN5C[C@H](F)C6)nc4c3F)c12` [Example 360, 4-(4-((1R,5S)-3,8-diazabicyclo[3.2.1]octan-3-yl)-8-fluoro-2-(((2R,7aS)-2-fluorotetrahydro-1H-pyrrolizin-7a(5H)-yl)methoxy)pyrido[4,3-d]pyrimidin-7-yl)-6-fluoro-5-(methylthio)naphthalen-2-ol] was tested, and the IC50 was 10 nM. With `CC1CCCc2cc(O)cc(-c3c4c(c5c(N6C[C@H]7CC[C@@H](C6)N7)nc(OC[C@@]67CCCN6C[C@H](F)C7)nc5c3F)CCC4)c21` (stereo partly drawn) [Example 382, 4-(1-((1R,5S)-3,8-diazabicyclo[3.2.1]octan-3-yl)-5-fluoro-3-(((2R,7aS)-2-fluorotetrahydro-1H-pyrrolizin-7a(5H)-yl)methoxy)-8,9-dihydro-7H-cyclopenta[f]quinazolin-6-yl)-5-methyl-5,6,7,8-tetrahydronaphthalen-2-ol] the IC50 was 45 nM. Molecule `C[C@@H]1OCC2(CCN(c3nc(OC[C@@]45CCCN4C[C@H](F)C5)nc4c(F)c(-c5cc(O)cc6ccc(F)c(F)c56)ncc34)CC2)[C@@H]1N` [Example 57, 4-(4-((3S,4S)-4-amino-3-methyl-2-oxa-8-azaspiro[4.5]decan-8-yl)-8-fluoro-2-(((2R, 7aS)-2-fluorotetrahydro-1H-pyrrolizin-7a(5H)-yl)methoxy)pyrido[4,3-d]pyrimidin-7-yl)-5,6-difluoronaphthalen-2-ol] has an IC50 greater than 2500 nM. In the case of `C#Cc1cccc2cc(O)cc(-c3ncc4c(N5CCC6(CC5)CO[C@@H](C)[C@H]6N)nc(OC[C@@]56CCCN5C[C@H](F)C6)nc4c3F)c12` [Example 56, 4-(4-((3S,4S)-4-amino-3-methyl-2-oxa-8-azaspiro[4.5]decan-8-yl)-8-fluoro-2-(((2R, 7aS)-2-fluorotetrahydro-1H-pyrrolizin-7a(5H)-yl)methoxy)pyrido[4,3-d]pyrimidin-7-yl)-5-ethynylnaphthalen-2-ol], the IC50 is reported as greater than 2500 nM. With `C#Cc1cc2c(N3C[C@H]4CC[C@@H](C3)N4)nc(OC[C@@]34CCCN3C[C@H](F)C4)nc2c(F)c1-c1cc(O)cc2ccccc12` [Example 369, 4-(4-((1R,5S)-3,8-diazabicyclo[3.2.1]octan-3-yl)-6-ethynyl-8-fluoro-2-(((2R,7aS)-2-fluorotetrahydro-1H-pyrrolizin-7a(5H)-yl)methoxy)quinazolin-7-yl)naphthalen-2-ol] the IC50 was 180 nM. `C#Cc1c(F)ccc2cc(O)cc(-c3ncc4c(N5CC6CCCC(C5)N6)nc(OC[C@@]56CCCN5C[C@H](F)C6)nc4c3F)c12` [Example 43, 4-(4-(3,9-diazabicyclo [3.3.1]nonan-3-yl)-8-fluoro-2-(((2R,7aS)-2-fluorotetrahydro-1H-pyrrolizin-7a(5H)-yl)methoxy)pyrido[4,3-d]pyrimidin-7-yl)-5-ethynyl-6-fluoronaphthalen-2-ol] was tested, and the IC50 was 31 nM. Work on `Oc1cc2c(c(-c3ncc4c(N5C[C@H]6CC[C@@H](C5)N6)nc(OC[C@@]56CCCN5C[C@H](F)C6)nc4c3F)c1)C(CC(F)F)CC2` (stereo partly drawn) [Example 258, 7-(4-((1R,5S)-3,8-diazabicyclo[3.2.1]octan-3-yl)-8-fluoro-2-(((2R,7aS)-2-fluorotetrahydro-1H-pyrrolizin-7a(5H)-yl)methoxy)pyrido[4,3-d]pyrimidin-7-yl)-1-(2,2-difluoroethyl)-2,3-dihydro-1H-inden-5-ol] yielded an IC50 greater than 10000 nM. Work on `C#Cc1c(F)ccc2cccc(-c3ccc4c(N5C[C@H]6CC[C@@H](C5)N6)nc(OC[C@]56CCCN5[C@@H](COC(=O)N(C)C)CC6)nc4n3)c12` [Example 147, ((3R,7aR)-7a-(((4-((1R, 5S)-3,8-diazabicyclo [3.2.1]octan-3-yl)-7-(8-ethynyl-7-fluoronaphthalen-1-yl)pyrido[2,3-d]pyrimidin-2-yl)oxy)methyl)hexahydro-1H-pyrrolizin-3-yl)methyl dimethylcarbamate] yielded an IC50 greater than 2500 nM. With `N#Cc1c(OC[C@@]23CCCN2C[C@H](F)C3)nc2c(F)c(-c3cc(O)cc4ccc(F)c(F)c34)ccc2c1N1C[C@H]2CC[C@@H](C1)N2` [Example 179, 4-((1R,5S)-3,8-diazabicyclo[3.2.1]octan-3-yl)-7-(7,8-difluoro-3-hydroxynaphthalen-1-yl)-8-fluoro-2-(((2R,7aS)-2-fluorotetrahydro-1H-pyrrolizin-7a(5H)-yl)methoxy)quinoline-3-carbonitrile] the IC50 was 550 nM.
